Several values for one entry are separate records, joined by “and”; a condition that tells them apart may be missing. Identical values can stand only once.
What was measured:
Plasmodium berghei [1] = experiment: Antimalarial effect against trophozoite-induced Plasmodium berghei in mice (Mus musculus) after 20 mg/kg subcutaneous dose; assay type: functional
Plasmodium berghei [2] = experiment: Antimalarial effect against trophozoite-induced Plasmodium berghei in mice (Mus musculus) at 320 mg/kg subcutaneous dose; assay type: functional
Plasmodium berghei [3] = experiment: Antimalarial effect against trophozoite-induced Plasmodium berghei in mice (Mus musculus) after 40 mg/kg subcutaneous dose; assay type: functional
Plasmodium berghei [4] = experiment: (§1) Antimalarial effect against trophozoite-induced Plasmodium berghei in mice (Mus musculus) at 640 mg/kg subcutaneous dose; assay type: functional; settings: 640 mg/kg
Plasmodium berghei [5] = experiment: Antimalarial effect against trophozoite-induced Plasmodium berghei in mice (Mus musculus) at 160 mg/kg subcutaneous dose; assay type: functional
Plasmodium berghei [6] = experiment: Antimalarial activity against trophozoite-induced Plasmodium berghei in mice (Mus musculus); assay type: functional
Plasmodium berghei [7] = experiment: Antimalarial effect against trophozoite-induced Plasmodium berghei in mice (Mus musculus) at 80 mg/kg subcutaneous dose; assay type: functional
[8] = The ratio of SD90 of the quinine hydrochloride, to the SD90 of the test substance for the Dose of 37 mg/kg/day; assay type: functional
Plasmodium berghei [9] = experiment: Antimalarial activity against trophozoite-induced Plasmodium berghei in mice (Mus musculus) at 160 mg/kg subcutaneous dose; assay type: functional
Mus musculus [10] = experiment: Number of mice cured at a subcutaneous dose of 160 mg/kg.; assay type: functional
Mus musculus [11] = experiment: Number of mice cured at a dose of 640 mg/kg sc; assay type: functional; settings: route subcutaneous
[12] = The ratio of SD90 of the quinine hydrochloride, to the SD90 of the test substance for the Dose of 20 mg/kg; assay type: functional
Mus musculus [13] = experiment: Number of mice cured at a subcutaneous dose of 320 mg/kg.; assay type: functional
Mus musculus [14] = experiment: Antimalarial effect against trophozoite-induced Plasmodium berghei in mice (Mus musculus) at dosage of 320 mg/kg after subcutaneous administration; No. of mice (Mus musculus) surviving after 60 days 4; assay type: functional
Mus musculus [15] = experiment: Antimalarial effect against trophozoite-induced Plasmodium berghei in mice (Mus musculus) at dosage of 160 mg/kg after subcutaneous administration; No. of mice (Mus musculus) surviving after 60 days 3; assay type: functional
[16] = The ratio of SD90 of the quinine hydrochloride, to the SD90 of the test substance for the Dose of 8.5 mg/kg; assay type: functional
Mus musculus [17] = experiment: Antimalarial effect against trophozoite-induced Plasmodium berghei in mice (Mus musculus) at dosage of 320 mg/kg after subcutaneous administration;; assay type: functional
Mus musculus [18] = experiment: Number of toxic deaths at a dose of 320 mg/kg; assay type: toxicity, organism-based; set-up: dose 320 mg/kg; settings: in vivo
Mus musculus [19] = experiment: Number of toxic deaths at a dose of 640 mg/kg; assay type: toxicity, organism-based; set-up: dose 640 mg/kg; settings: in vivo
Mus musculus [20] = experiment: (§2) Number of toxic deaths at a dose of 160 mg/kg; assay type: toxicity, organism-based; set-up: dose 160 mg/kg; settings: in vivo
[21] = The ratio of SD90 of the quinine hydrochloride, to the SD90 of the test substance for the Dose of 45 mg/kg; assay type: functional
Mus musculus [22] = experiment: as §2; assay type: functional
Plasmodium berghei [23] = experiment: as §1; assay type: functional
Mus musculus [24] = experiment: Number of mice cured at a subcutaneous dose of 640 mg/kg.; assay type: functional
[25] = The ratio of SD90 of the quinine hydrochloride, to the SD90 of the test substance for the Dose of 38 mg/kg; assay type: functional
[26] = The ratio of SD90 of the quinine hydrochloride, to the SD90 of the test substance for the Dose of >34 mg/kg; assay type: functional
[27] = The ratio of SD90 of the quinine hydrochloride, to the SD90 of the test substance for the Dose of 70 mg/kg; assay type: functional
Mus musculus [28] = experiment: Antimalarial effect against trophozoite induced Plasmodium berghei in mice (Mus musculus) at dosage of 40 mg/kg after subcutaneous administration; assay type: functional
[29] = The ratio of SD90 of the quinine hydrochloride, to the SD90 of the test substance for the Dose of 36 mg/kg; assay type: functional
[30] = The ratio of SD90 of the quinine hydrochloride, to the SD90 of the test substance for the Dose of 80 mg/kg; assay type: functional
Mus musculus [31] = experiment: Antimalarial effect against trophozoite induced Plasmodium berghei in mice (Mus musculus) at dosage of 160 mg/kg after subcutaneous administration; No. of mice (Mus musculus) surviving after 60 days 2; assay type: functional
Mus musculus [32] = experiment: Antimalarial effect against trophozoite-induced Plasmodium berghei in mice (Mus musculus) at dosage of 80 mg/kg after subcutaneous administration; assay type: functional
[33] = The ratio of SD90 of the quinine hydrochloride, to the SD90 of the test substance for the Dose of 155 mg/kg; assay type: functional
[34] = The ratio of SD90 of the quinine hydrochloride, to the SD90 of the test substance for the Dose of 69 mg/kg; assay type: functional
Mus musculus [35] = experiment: Antimalarial effect against trophozoite induced Plasmodium berghei in mice (Mus musculus) at dosage of 320 mg/kg after subcutaneous administration; No. of mice (Mus musculus) surviving after 60 days 3; assay type: functional
Mus musculus [36] = experiment: Antimalarial effect against trophozoite induced Plasmodium berghei in mice (Mus musculus) at dosage of 640 mg/kg after subcutaneous administration; No. of mice (Mus musculus) surviving after 60 days 2; assay type: functional
Mus musculus [37] = experiment: Antimalarial effect against trophozoite induced Plasmodium berghei in mice (Mus musculus) at dosage of 160 mg/kg after subcutaneous administration.; assay type: functional
[38] = The ratio of SD90 of the quinine hydrochloride, to the SD90 of the test substance for the Dose of 68 mg/kg; assay type: functional
Mus musculus [39] = experiment: Number of mice cured at a dose of 320 mg/kg sc; assay type: functional; settings: route subcutaneous
[40] = The ratio of SD90 of the quinine hydrochloride, to the SD90 of the test substance for the Dose of […] mg/kg; assay type: functional

FC(F)(F)c1ccc(Nc2nc(NCCN3CCCC3)c3ccccc3n2)cc1
MST (Plasmodium berghei [1]): 0.2 days
MST (Plasmodium berghei [2]): 10.2 days
MST (Plasmodium berghei [3]; 40 mg/kg): 0.4 days and 0.8 days
MST (Plasmodium berghei [4]): 16.2 days and 13.2 days
MST (Plasmodium berghei [5]; 160 mg/kg): 4.8 days and 3.4 days
SD90 (Plasmodium berghei [6]): 37 mg/kg/day
MST (Plasmodium berghei [7]): 2.4 days
Ratio [8]: 2

CN1CCCC1CCNc1nc(Nc2cc(Cl)cc(Cl)c2)nc2ccc(Cl)cc12 (stereo unspecified)
MST (Plasmodium berghei [1]): 0.6 days
MST (Plasmodium berghei [2]): 21.1 days
MST (Plasmodium berghei [3]; 40 mg/kg): 3.6 days and 4 days
MST (Plasmodium berghei [9]; 160 mg/kg): 11.1 days and 10.3 days
SD90 (Plasmodium berghei [6]): 20 mg/kg/day
MST (Plasmodium berghei [7]): 5 days
No. of survivals (Mus musculus [10]): 1
No. of survivals (Mus musculus [11]): 5
Ratio [12]: 3.8
No. of survivals (Mus musculus [13]): 1

CN(C)C1CCC(Nc2nc(Nc3ccc(Cl)c(Cl)c3)nc3ccccc23)CC1 (stereo in doubt; 23)
MST (Plasmodium berghei [1]; 20 mg/kg): 0.9 days
MST (Plasmodium berghei [3]; 40 mg/kg): 9.7 days and 9.9 days
MST (Plasmodium berghei [9]; 160 mg/kg): 27.4 days
SD90 (Plasmodium berghei [6]): 8.5 mg/kg/day
No. of survivals (Mus musculus [10]; 160 mg/kg): 3
No. of survivals (Mus musculus [11]): 5
MST (Mus musculus [14]): 25.9 days
MST (Mus musculus [15]): 25.4 days
Ratio [16]: 8.8

CCOc1ccc(Nc2nc(NCCN(CC)CC)c3cc(Cl)ccc3n2)cc1CN(CC)CC
MST (Plasmodium berghei [1]): 0.2 days
MST (Mus musculus [17]): 5.8 days
MST (Plasmodium berghei [3]): 0.8 days
MST (Plasmodium berghei [9]): 4.3 days
SD90 (Plasmodium berghei [6]): 45 mg/kg/day
MST (Plasmodium berghei [7]): 3.2 days
No. of toxic deaths (Mus musculus [18]): 4
No. of toxic deaths (Mus musculus [19]): 5
No. of toxic deaths (Mus musculus [20]): 1
Ratio [21]: 1.6

CCN(CC)CCNc1nc(NCc2ccc(Cl)c(Cl)c2)nc2ccccc12
MST (Plasmodium berghei [3]): 0.7 days
MST (Plasmodium berghei [9]): 0.9 days
No. of toxic deaths (Mus musculus [22]): 1
No. of toxic deaths (Mus musculus [19]): 5

CCN1CCCC(Nc2nc(Nc3ccc(Cl)cc3)nc3ccccc23)C1 (stereo unspecified)
MST (Plasmodium berghei [1]): 0.2 days
MST (Plasmodium berghei [2]): 20 days
MST (Plasmodium berghei [3]; 40 mg/kg): 0.4 days and 0.6 days
MST (Plasmodium berghei [23]; 640 mg/kg): 28.3 days and 28.8 days
MST (Plasmodium berghei [5]; 160 mg/kg): 10.6 days and 11.4 days
No. of cured (Mus musculus [24]): 3
SD90 (Plasmodium berghei [6]): 38 mg/kg/day
MST (Plasmodium berghei [7]): 3 days
Ratio [25]: 2

CCOc1ccc(Nc2nc(NCCN(CC)CC)c3ccc(Cl)cc3n2)cc1CN1CCCC1
SD90 (Plasmodium berghei [6]): >34 mg/kg/day
Ratio [26]: <2.2

Clc1ccc(Nc2nc(NCCN3CCCC3)c3ccccc3n2)cc1Cl
MST (Plasmodium berghei [1]): 0.3 days
MST (Plasmodium berghei [2]): 9.3 days
MST (Plasmodium berghei [3]; 40 mg/kg): 2.1 days and 2.3 days
MST (Plasmodium berghei [4]): 15.9 days and 13.7 days
MST (Plasmodium berghei [5]; 160 mg/kg): 6.5 days and 7.1 days
SD90 (Plasmodium berghei [6]): 70 mg/kg/day
MST (Plasmodium berghei [7]): 3.1 days
Ratio [27]: 1.1

CCN1CCCC(Nc2nc(Nc3cc(Cl)cc(Cl)c3)nc3ccc(Cl)cc23)C1 (stereo unspecified)
MST (Plasmodium berghei [1]): 0.2 days
MST (Plasmodium berghei [2]): 6.4 days
MST (Plasmodium berghei [3]): 0.2 days
MST (Plasmodium berghei [23]; 640 mg/kg): 7.8 days and 4.8 days
MST (Plasmodium berghei [5]): 1 days
SD90 (Plasmodium berghei [6]): 36 mg/kg/day
MST (Plasmodium berghei [7]): 0.6 days
No. of survivals (Mus musculus [11]): 3
MST (Mus musculus [28]): 0.4 days
Ratio [29]: 2.1

Clc1cc(Cl)cc(Nc2nc(NCCN3CCCC3)c3ccccc3n2)c1
MST (Plasmodium berghei [1]): 0.5 days
MST (Plasmodium berghei [2]): 5.9 days
MST (Plasmodium berghei [3]; 40 mg/kg): 0.9 days and 1.3 days
MST (Plasmodium berghei [4]): 10.7 days and 10.3 days
MST (Plasmodium berghei [5]; 160 mg/kg): 3.5 days and 4.1 days
SD90 (Plasmodium berghei [6]): 80 mg/kg/day
MST (Plasmodium berghei [7]): 1.7 days
Ratio [30]: 0.9

CCN(CC)Cc1cc(Nc2nc(NC3CCC(N(C)C)CC3)c3ccccc3n2)ccc1OC (stereo unspecified)
MST (Plasmodium berghei [1]): 7.5 days
MST (Plasmodium berghei [3]; 40 mg/kg): 7.7 days and 7.2 days
MST (Plasmodium berghei [9]): 13 days
MST (Mus musculus [31]): 16.3 days
No. of cured (Mus musculus [24]): 3
SD90 (Plasmodium berghei [6]): 155 mg/kg/day
MST (Mus musculus [32]): 13 days
No. of toxic deaths (Mus musculus [18]): 5
No. of toxic deaths (Mus musculus [19]): 5
Ratio [33]: 0.5

CCN(CC)CCNc1nc(Nc2ccc(Cl)c(Cl)c2)nc2ccc(NCc3ccc(Cl)c(Cl)c3)cc12
MST (Plasmodium berghei [1]): 0.2 days
MST (Plasmodium berghei [2]): 5.6 days
MST (Plasmodium berghei [3]; 40 mg/kg): 0.2 days and 0.4 days
MST (Plasmodium berghei [5]): 3.8 days
SD90 (Plasmodium berghei [6]): 69 mg/kg/day
MST (Plasmodium berghei [7]): 0.4 days
Ratio [34]: 1.1

CCN1CCC(CNc2nc(Nc3ccc(C(F)(F)F)cc3)c3ccccc3n2)CC1
MST (Plasmodium berghei [1]): 0.3 days
MST (Plasmodium berghei [2]): 8.9 days
MST (Plasmodium berghei [3]): 0.5 days
MST (Plasmodium berghei [23]): 21.9 days
MST (Plasmodium berghei [9]): 3.9 days
MST (Plasmodium berghei [5]): 7.3 days
MST (Plasmodium berghei [7]; 80 mg/kg): 0.5 days and 0.7 days
No. of survivals (Mus musculus [10]): 1
No. of survivals (Mus musculus [11]): 4
MST (Mus musculus [35]): 9.4 days
No. of survivals (Mus musculus [13]): 3

Clc1ccc(Nc2nc(NCCN3CCCC3)c3ccccc3n2)cc1
MST (Plasmodium berghei [1]): 0.1 days
MST (Plasmodium berghei [2]): 18.2 days
MST (Plasmodium berghei [3]; 40 mg/kg): 0.7 days and 1.1 days
MST (Plasmodium berghei [23]): 25.4 days
MST (Mus musculus [36]): 24.6 days
MST (Mus musculus [37]): 6.1 days
MST (Plasmodium berghei [5]): 6.7 days
No. of cured (Mus musculus [24]; 640 mg/kg): 3 and 1
SD90 (Plasmodium berghei [6]): 68 mg/kg/day
MST (Plasmodium berghei [7]): 1.1 days
Ratio [38]: 1.1

CCN(CC)C1CCC(Nc2nc(Nc3cc(Br)cc(Br)c3)nc3ccccc23)CC1 (stereo unspecified)
MST (Plasmodium berghei [1]): 0.3 days
MST (Plasmodium berghei [2]): 26.2 days
MST (Plasmodium berghei [3]; 40 mg/kg): 1.1 days and 0.7 days
MST (Plasmodium berghei [5]; 160 mg/kg): 8.7 days and 9.1 days
No. of cured (Mus musculus [39]): 2
No. of cured (Mus musculus [24]): 5
SD90 (Plasmodium berghei [6]): 3.3 mg/kg/day
MST (Plasmodium berghei [7]): 4.3 days
Ratio [40]: 2.3

From ChEMBL document CHEMBL1121775, “Synthesis and antimalarial effects of N2-aryl-N4-[(dialkylamino)alkyl]- and N4-aryl-N2-[(dialkylamino)alkyl]-2,4-quinazolinediamines” (J Med Chem, 1981)
